Measurements: patent US8093262B2 (priority 2005, dated 2012)
Where two headings read alike, the source gives them in different places.

How the values were obtained:
Swiss Webster NIH mice = test: Formalin test for antinociceptive activity (paw licking/biting); format: in vivo; settings: 1 mg/kg i.p.
Method: The formalin test for antinociceptive activity is described in numerous publications, e.g., Hunskaar, S., O. B. Fasmer, and K. Hole, J. Neurosci. […] The formalin test is accepted as an art recognized model of persistent clinical pain.
Male Swiss Webster NIH mice (20-30 g; Harlan, San Diego, Calif.) were used in the experiments described herein. Food was withdrawn on the day of experiment. Mice were placed in Plexiglass jars for at least 1 hour to accommodate to the environment. Following the accommodation period, mice were weighed and given either a huperzine compound administered intraperitoneal (i.p.) or oral (p.o.), or the appropriate volume of vehicle (10% Tween-80). Fifteen minutes after the i.p. dosing, and 30 minutes after the p.o. dosing mice were injected with formalin (20 μL of 5% formaldehyde solution in saline) into the dorsal surface of the right hind paw. Mice were transferred to the Plexiglass jars and monitored for the amount of time spent licking or biting the injected paw. Periods of licking and biting were recorded in 5 minute intervals for 40 minutes after the formalin injection. […] The early phase (acute) of the formalin response is measured as licking/biting between 0-5 minutes, and the late phase (inflammatory) is measured from 10-40 minutes. Differences between vehicle and drug treated groups are analyzed by one-way analysis of variance (ANOVA). […]

mice [1] = test: Maximal Electroshock (MES) seizure test, mice, i.p.; format: in vivo; settings: 1 mg/kg
Method: This toxicity profile is generally not observed in humans. Thus, a higher relative dose of a huperzine compound is tolerated in humans compared to rodents.
(§1) Seizure testing was carried out as follows.

mice [2] = test: Subcutaneous Metrazol (SCMET / scPTZ) seizure test, mice, i.p.; format: in vivo
Method: as §1

mice [3] = test: Toxicity model (TOX), rotorod, mice; format: in vivo; settings: for TOX observation code: i.p.; for TOX N/F (mice showing an effect / mice tested): mouse, in vivo, ip
rats [4] = test: Subcutaneous Metrazol (SCMET / scPTZ) seizure test, rats, oral; format: in vivo
Method: (§2) Peak anticonvulsant activity was observed one-hour after p.o. administration of 1 mg/kg.

rats [5] = test: Toxicity (TOX) / minimal motor impairment, rats; format: in vivo; settings: for Behavioral motor impairment, animals affected: rat, in vivo, po
Method: as §2

mice [6] = format: in vivo; settings: for N/F, Time to Peak Effect: IP, 32 mA, 0.83 mg/kg; for COMMENT (observed effects): ip
Method: as §1

[7] = format: physicochemical
patients = settings: human, in vivo; cited from earlier work
mice [8] = settings: established antiepileptic drugs; cited from earlier work

C/C=C1\[C@H]2C=C(C)C[C@]1(N)c1ccc(=O)[nH]c1C2 [Huperzine A]
Inhibition of phase 1 (acute) pain response (Swiss Webster NIH mice): complete inhibition | Inhibition of phase 2 (inflammatory) pain response (Swiss Webster NIH mice): complete inhibition | Protection in the mouse MES test (FIG. 1) (mice [1]): time-dependent protection | SCMET N/F (mice showing an effect / mice tested) (mice [2]; 1 mg/kg SOL, 0.5 h): 3/5 | SCMET N/F (mice showing an effect / mice tested) (mice [2]; 3 mg/kg SUS, 0.5 h): 1/1 | SCMET N/F (mice showing an effect / mice tested) (mice [2]; 10 mg/kg SUS, 4.0 h): 1/1 | TOX observation code (mice [3]; 1 mg/kg SOL, 0.5 h): 4/4 (T)^2 | TOX observation code (mice [3]; 1 mg/kg SOL, 4.0 h): 2/2 (T) | TOX observation code (mice [3]; 3 mg/kg SUS, 4.0 h): 4/4 (T) | TOX observation code (mice [3]; 10 mg/kg SUS, 4.0 h): 2/2 (T) | TOX observation code (mice [3]; 30 mg/kg SUS, 0.5 h): 4/4 (D)^3 | TOX observation code (mice [3]; 100 mg/kg SUS, 0.5 h): 8/8 (D) | TOX observation code (mice [3]; 300 mg/kg SUS, 0.5 h): 4/4 (D) | TD50 (mice [3]; mice): 0.83 mg/kg | TOX N/F (mice showing an effect / mice tested) (mice [3]; 0.1 mg/kg, 4 h): 0/4 | TOX N/F (mice showing an effect / mice tested) (mice [3]; 0.3 mg/kg, 4 h): 0/4 | TOX N/F (mice showing an effect / mice tested) (mice [3]; 1 mg/kg, 0.5 h): 4/4 (T)^2 | TOX N/F (mice showing an effect / mice tested) (mice [3]; 1 mg/kg, 4 h): 2/2 (T) | TOX N/F (mice showing an effect / mice tested) (mice [3]; 3 mg/kg, 0.5 h): 8/8 | TOX N/F (mice showing an effect / mice tested) (mice [3]; 3 mg/kg, 4 h): 4/4 (T) | TOX N/F (mice showing an effect / mice tested) (mice [3]; 10 mg/kg, 0.5 h): 4/4 | TOX N/F (mice showing an effect / mice tested) (mice [3]; 10 mg/kg, 4 h): 2/2 (T) | TOX N/F (mice showing an effect / mice tested) (mice [3]; 30 mg/kg, 0.5 h): 4/4 (D)^3 | TOX N/F (mice showing an effect / mice tested) (mice [3]; 100 mg/kg, 0.5 h): 8/8 (D) | TOX N/F (mice showing an effect / mice tested) (mice [3]; 300 mg/kg, 0.5 h): 4/4 (D) | Time of peak anticonvulsant activity (rats [4]; after p.o. administration of 1 mg/kg): one-hour | Time of peak activity post administration (rats [4]; oral, 1 mg/kg, rat MES and SCMET time course): between 30 minutes and two hours | Toxicity (rats [5]; oral, 1 mg/kg, any of the animals): no toxicity | Behavioral motor impairment, animals affected (rats [5]; 2 mg/kg): 75% | Behavioral motor impairment, animals affected (rats [5]; 4 mg/kg): 100% | Protection in the mouse 6 Hz test (FIG. 1) (mice [6]; 0.8 mg/kg): time-dependent protection | N/F, Time to Peak Effect (mice [6]; 0.25 h): 1/4 | N/F, Time to Peak Effect (mice [6]; 0.5 h): 1/4 | N/F, Time to Peak Effect (mice [6]; 1.0 h): 4/4 | N/F, Time to Peak Effect (mice [6]; 2.0 h): 2/4 | N/F, Time to Peak Effect (mice [6]; 4.0 h): 0/4 | Protection against 6 Hz seizures (FIG. 2) (mice [6]; mouse, in vivo): dose-dependent protection | COMMENT (observed effects) (mice [6]; mouse, in vivo, 0.18 mg/kg): Minimal motor impairment | COMMENT (observed effects) (mice [6]; mouse, in vivo, 0.2 mg/kg): Tremors | COMMENT (observed effects) (mice [6]; mouse, in vivo, 0.35 mg/kg): Minimal motor impairment | Solubility in the methyl cellulose solvent [7]: not soluble | Adverse effects in patients (patients): adverse effects were noted infrequently

NC(=O)N1c2ccccc2C=Cc2ccccc21 [carbamazepine]
Efficacy in the 6 Hz psychomotor seizure model (mice [8]): limited efficacy

Nc1nnc(-c2cccc(Cl)c2Cl)c(N)n1 [lamotrigine]
Efficacy in the 6 Hz psychomotor seizure model (mice [8]): limited efficacy

O=C1NC(=O)C(c2ccccc2)(c2ccccc2)N1 [phenyloin]
Efficacy in the 6 Hz psychomotor seizure model (mice [8]): limited efficacy

CC1(C)O[C@@H]2[C@@H](CO[C@@]3(COS(N)(=O)=O)OC(C)(C)O[C@@H]23)O1 [topiramate]
Efficacy in the 6 Hz psychomotor seizure model (mice [8]): limited efficacy
